Results from paper PMC11513923, “Discovery of ZLC491 as a Potent, Selective, and Orally Bioavailable CDK12/13 PROTAC Degrader” (Journal of Medicinal Chemistry, 2024).

Assays:
[1] = target: T1, CDK13 (Homo sapiens, UniProt Q14004); assay: CDK13 degradation in MDA-MB-231 cells by immunoblotting; assay type: cell-based; details: 0.3 μM; for Protein Degradation (%DMSO control, 0.3 μM) CDK13: MDA-MB-231 cells, 15 h, immunoblotting, normalized against α-tubulin; for Degradation rates of CDK13 at 0.3 μM: supplementary CSV;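 on Protein Degradation (%DMSO control, 0.3 μM) CDK13: percent of CDK13 protein degraded relative to DMSO control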
T1 construct: Immunoblotting of CDK12 and CDK13 in MDA-MB-231 cells treated with increasing concentrations of ZLC491 for 15 h; endogenous in cells; host or cells: MDA-MB-231
Protocol: (§1) The degradation efficiency of the new molecules was assessed by immunoblotting after treatment with the compounds at 0.3 μM in MD-MBA-231 cells for 15 h.
(§2) To further characterize the compound, we determined the half-degradation concentration (DC50) values of ZLC491 in MDA-MB-231 cells. […] We also treated MDA-MB-231 cells with 1 μM ZLC491 at various time points.
(§3) (A) Immunoblotting of CDK12 and CDK13 in MDA-MB-231 cells treated with increasing concentrations of ZLC491 for 15 h (left). Percent remaining CDK12 and CDK13 proteins were plotted for DC50 determination (right). Protein levels were quantified using ImageJ and normalized to corresponding α-tubulin, then plotted using Graphpad Prism 8.0. The data were representative of three independent experiments; (B) immunoblotting of CDK12 and CDK13 proteins in MDA-MB-231 cells treated with ZLC491 for various time points; immunoblotting of CDK12 and CDK13 in HCC38 (C) and MDA-MB-436 (D) cells treated with increasing concentrations of ZLC491 for 15 h. α-Tubulin was used as a loading control. TEXT PRINTED IN THE PICTURE: (A) ZLC491: MDA-MB-231: CDK12 DC50 = 0.032μM; MDA-MB-231: CDK13 DC50 = 0.028μM DOUBTS OF THE COPYIST ABOUT THIS PICTURE: ZLC491, CDK12 DC50: 0.032 read from small print, the digits 3 and 2 are uncertain / ZLC491, CDK13 DC50: 0.028 read from small print, the last digit may be 8, 6 or 3
(§4) Generally, the tested cells were washed by ice-cold PBS buffer (Gibco) and lysed with an SDS lysis buffer (62.5 mM Tris, 2% w/v SDS, 10 glycerol, 50 mM DTT, 0.01% w/v bromophenol blue) on ice, after which the protein lysate samples were collected to 1.5 mL microcentrifuge tubes and treated with ultrasonic for 10 s, following with a 100 °C incubation for 10 min and a 4 °C centrifugation of 12000 rpm for 10 min. An equal amount of protein was loaded to 4–8% Bis-Tris gels and underwent an SDS-PAGE electrophoresis at 55V for 30 min and 95V for 90 min. Proteins on gels were then transferred to a polyvinylidene difluoride (PVDF) membrane (Bio-Rad) with a wet electro transfer system (Bio-Rad). The PVDF membrane was cut into bands and incubated in a blocking reagent (5% defatted milk powder dissolved in TBST) at room temperature for 1–2 h. Incubate membrane and primary antibody (at the appropriate dilution and diluent as recommended in the product webpage) at 4 °C for 12–14 h, followed with three times washes by TBST. The washed membranes were incubated in a secondary antibody solution (HRP-linked antirabbit IgG or antimouse IgG (CST), 1:2000 diluted into TBST) at room temperature for 2 h. Membranes were photographed in Amersham Imager 800 system using StarSignal plus regent (GenStar) or Omni-ECL reagent (EpiZyme). Compounds MG132, MLN4924, Bafilomycin A1 and pomalidomide were purchased from MedChemExpress (MCE) LLC.

[2] = target: CDK12 (Homo sapiens, UniProt Q9NYV4); assay: CDK12 degradation in MDA-MB-231 cells by immunoblotting; assay type: cell-based; design: Immunoblotting of CDK12 and CDK13 in MDA-MB-231 cells treated with increasing concentrations of ZLC491 for 15 h; endogenous in cells; host or cells: MDA-MB-231; details: 0.3 μM; for Protein Degradation (%DMSO control, 0.3 μM) CDK12: MDA-MB-231 cells, 15 h, immunoblotting, normalized against α-tubulin; for Degradation rates of CDK12 at 0.3 μM: supplementary CSV
Protocol: as §1, §2, §3, §4

Chain of CDK12 (Q9NYV4 whole entry): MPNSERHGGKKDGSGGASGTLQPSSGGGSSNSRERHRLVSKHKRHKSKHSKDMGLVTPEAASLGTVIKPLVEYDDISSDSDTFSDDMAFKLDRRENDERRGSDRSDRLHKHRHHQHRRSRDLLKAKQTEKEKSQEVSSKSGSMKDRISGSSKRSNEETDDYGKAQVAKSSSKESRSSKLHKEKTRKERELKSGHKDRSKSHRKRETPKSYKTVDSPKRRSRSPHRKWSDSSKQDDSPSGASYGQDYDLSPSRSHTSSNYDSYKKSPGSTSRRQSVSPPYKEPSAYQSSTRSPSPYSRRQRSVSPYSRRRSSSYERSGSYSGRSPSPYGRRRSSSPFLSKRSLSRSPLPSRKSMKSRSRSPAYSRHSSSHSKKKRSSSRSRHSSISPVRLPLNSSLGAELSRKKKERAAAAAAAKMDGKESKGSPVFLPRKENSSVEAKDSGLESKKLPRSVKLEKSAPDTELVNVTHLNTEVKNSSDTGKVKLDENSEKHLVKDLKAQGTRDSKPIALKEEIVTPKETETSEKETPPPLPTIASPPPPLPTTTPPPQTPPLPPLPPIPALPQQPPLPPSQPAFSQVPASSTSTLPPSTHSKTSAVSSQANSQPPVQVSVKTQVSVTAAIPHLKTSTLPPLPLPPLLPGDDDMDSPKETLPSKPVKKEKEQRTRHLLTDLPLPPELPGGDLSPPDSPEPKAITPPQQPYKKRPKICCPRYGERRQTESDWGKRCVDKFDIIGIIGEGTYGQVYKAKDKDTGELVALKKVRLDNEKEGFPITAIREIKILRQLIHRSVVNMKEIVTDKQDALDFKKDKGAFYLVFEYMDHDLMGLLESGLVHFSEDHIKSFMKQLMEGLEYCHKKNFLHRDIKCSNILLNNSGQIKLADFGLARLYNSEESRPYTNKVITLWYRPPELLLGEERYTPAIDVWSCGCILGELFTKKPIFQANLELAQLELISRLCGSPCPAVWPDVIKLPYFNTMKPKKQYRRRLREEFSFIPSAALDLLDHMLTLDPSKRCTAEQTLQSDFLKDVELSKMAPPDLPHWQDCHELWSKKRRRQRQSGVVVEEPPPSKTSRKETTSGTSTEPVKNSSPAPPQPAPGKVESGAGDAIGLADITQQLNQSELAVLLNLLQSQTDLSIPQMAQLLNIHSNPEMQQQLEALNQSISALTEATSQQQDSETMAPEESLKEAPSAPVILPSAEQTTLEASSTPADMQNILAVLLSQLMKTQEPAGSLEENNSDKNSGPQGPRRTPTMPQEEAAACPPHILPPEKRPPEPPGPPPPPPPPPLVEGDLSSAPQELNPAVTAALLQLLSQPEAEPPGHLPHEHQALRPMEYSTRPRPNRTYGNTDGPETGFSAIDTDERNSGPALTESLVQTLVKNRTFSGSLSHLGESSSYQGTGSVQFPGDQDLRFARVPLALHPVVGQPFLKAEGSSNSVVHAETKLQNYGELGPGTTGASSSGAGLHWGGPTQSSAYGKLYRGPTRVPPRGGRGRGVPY
Chain of CDK12 (O75909 whole entry partner): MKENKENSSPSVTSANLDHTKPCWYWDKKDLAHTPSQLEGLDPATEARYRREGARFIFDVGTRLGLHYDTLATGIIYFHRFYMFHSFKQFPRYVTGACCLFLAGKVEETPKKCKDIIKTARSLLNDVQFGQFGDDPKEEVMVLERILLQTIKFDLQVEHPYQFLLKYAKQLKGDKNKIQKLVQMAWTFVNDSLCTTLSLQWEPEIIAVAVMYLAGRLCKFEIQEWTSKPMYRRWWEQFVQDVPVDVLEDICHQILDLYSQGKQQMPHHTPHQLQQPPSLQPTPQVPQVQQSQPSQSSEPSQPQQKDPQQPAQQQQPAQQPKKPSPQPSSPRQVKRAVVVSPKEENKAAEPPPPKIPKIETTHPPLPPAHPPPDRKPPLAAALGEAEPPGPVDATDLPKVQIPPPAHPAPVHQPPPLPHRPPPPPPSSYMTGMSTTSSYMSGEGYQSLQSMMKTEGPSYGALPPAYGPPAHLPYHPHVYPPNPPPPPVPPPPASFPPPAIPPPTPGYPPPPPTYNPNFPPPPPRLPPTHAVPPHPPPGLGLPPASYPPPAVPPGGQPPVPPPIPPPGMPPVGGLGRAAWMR
T1 sequence (Q14004 whole entry): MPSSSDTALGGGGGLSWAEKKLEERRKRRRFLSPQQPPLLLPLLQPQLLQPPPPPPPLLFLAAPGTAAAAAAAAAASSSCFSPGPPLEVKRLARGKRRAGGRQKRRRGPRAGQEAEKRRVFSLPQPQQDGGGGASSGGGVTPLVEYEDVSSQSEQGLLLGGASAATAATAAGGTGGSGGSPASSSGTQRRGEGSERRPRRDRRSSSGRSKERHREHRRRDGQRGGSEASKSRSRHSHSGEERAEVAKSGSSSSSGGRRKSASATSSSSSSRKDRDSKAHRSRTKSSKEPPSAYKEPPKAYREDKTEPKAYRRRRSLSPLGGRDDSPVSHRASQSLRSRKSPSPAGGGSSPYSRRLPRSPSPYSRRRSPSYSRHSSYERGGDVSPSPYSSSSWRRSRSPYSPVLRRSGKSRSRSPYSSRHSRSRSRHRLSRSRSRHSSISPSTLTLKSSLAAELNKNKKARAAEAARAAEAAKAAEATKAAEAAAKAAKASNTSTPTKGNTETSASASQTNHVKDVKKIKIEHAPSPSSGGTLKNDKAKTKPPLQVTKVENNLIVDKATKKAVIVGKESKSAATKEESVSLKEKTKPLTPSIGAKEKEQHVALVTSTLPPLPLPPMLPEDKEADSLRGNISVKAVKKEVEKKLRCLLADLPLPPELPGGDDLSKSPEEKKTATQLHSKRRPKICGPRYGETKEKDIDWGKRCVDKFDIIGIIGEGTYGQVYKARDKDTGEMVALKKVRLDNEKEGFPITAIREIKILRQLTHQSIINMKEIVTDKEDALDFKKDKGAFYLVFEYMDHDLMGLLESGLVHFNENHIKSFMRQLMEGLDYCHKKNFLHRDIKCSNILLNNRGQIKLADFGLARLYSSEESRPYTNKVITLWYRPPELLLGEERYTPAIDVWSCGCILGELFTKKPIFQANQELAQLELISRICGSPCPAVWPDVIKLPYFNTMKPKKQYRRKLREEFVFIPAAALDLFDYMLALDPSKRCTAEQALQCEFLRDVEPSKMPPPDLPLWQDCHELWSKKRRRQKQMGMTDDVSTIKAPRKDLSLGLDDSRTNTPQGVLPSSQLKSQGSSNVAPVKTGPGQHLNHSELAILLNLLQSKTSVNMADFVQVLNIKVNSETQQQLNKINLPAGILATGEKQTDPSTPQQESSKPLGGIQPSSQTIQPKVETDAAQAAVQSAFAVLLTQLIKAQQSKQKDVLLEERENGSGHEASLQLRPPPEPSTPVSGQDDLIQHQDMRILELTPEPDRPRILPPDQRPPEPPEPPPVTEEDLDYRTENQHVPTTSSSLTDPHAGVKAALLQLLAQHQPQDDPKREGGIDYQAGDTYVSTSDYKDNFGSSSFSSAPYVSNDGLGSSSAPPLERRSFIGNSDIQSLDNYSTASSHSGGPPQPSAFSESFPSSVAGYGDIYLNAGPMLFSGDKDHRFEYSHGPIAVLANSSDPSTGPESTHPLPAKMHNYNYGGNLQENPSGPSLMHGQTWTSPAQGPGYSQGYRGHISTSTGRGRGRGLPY
T1 sequence (O75909 whole entry partner): as the sequence (O75909 whole entry partner) above

SMILES | Protein Degradation (%DMSO control, 0.3 μM) CDK13 [1] | Degradation rates of CDK13 at 0.3 μM [1] | Protein Degradation (%DMSO control, 0.3 μM) CDK12 [2] | Degradation rates of CDK12 at 0.3 μM [2]
N#Cc1ccc(N[C@H]2CC[C@H](N(C(=O)NCc3ccccc3)c3ccc(N4CCN(C(=O)C5CN(c6ccc7c(c6)C(=O)N(C6CCC(=O)NC6=O)C7=O)C5)CC4)cc3)CC2)nc1 (stereo partly drawn) [4a, 3-Benzyl-1-((1r,4r)-4-((5-cyanopyridin-2-yl)amino)cyclohexyl)-1-(4-(4-(1-(2-(2,6-dioxopiperidin-3-yl)-1,3-dioxoisoindolin-5-yl)azetidine-3-carbonyl)piperazin-1-yl)phenyl)urea] | 38% | 38% | 35% | 35%
N#Cc1ccc(N[C@H]2CC[C@H](N(C(=O)NCc3ccccc3)c3ccc(N4CCN(C(=O)C5CCN(c6ccc7c(c6)C(=O)N(C6CCC(=O)NC6=O)C7=O)C5)CC4)cc3)CC2)nc1 (stereo partly drawn) [4b, 3-Benzyl-1-((1r,4r)-4-((5-cyanopyridin-2-yl)amino)cyclohexyl)-1-(4-(4-(1-(2-(2,6-dioxopiperidin-3-yl)-1,3-dioxoisoindolin-5-yl)pyrrolidine-3-carbonyl)piperazin-1-yl)phenyl)urea] | 65% | 65% | 61% | 61%
N#Cc1ccc(N[C@H]2CC[C@H](N(C(=O)NCc3ccccc3)c3ccc(N4CCN(C(=O)C5CCN(c6ccc7c(c6)C(=O)N(C6CCC(=O)NC6=O)C7=O)CC5)CC4)cc3)CC2)nc1 (stereo partly drawn) [4c, 3-Benzyl-1-((1r,4r)-4-((5-cyanopyridin-2-yl)amino)cyclohexyl)-1-(4-(4-(1-(2-(2,6-dioxopiperidin-3-yl)-1,3-dioxoisoindolin-5-yl)piperidine-4-carbonyl)piperazin-1-yl)phenyl)urea] | 51% | 51% | 38% | 38%
N#Cc1ccc(N[C@H]2CC[C@H](N(C(=O)NCc3ccccc3)c3ccc(N4CCN(CC5CN(c6ccc7c(c6)C(=O)N(C6CCC(=O)NC6=O)C7=O)C5)CC4)cc3)CC2)nc1 (stereo partly drawn) [4d, 3-Benzyl-1-((1r,4r)-4-((5-cyanopyridin-2-yl)amino)cyclohexyl)-1-(4-(4-((1-(2-(2,6-dioxopiperidin-3-yl)-1,3-dioxoisoindolin-5-yl)azetidin-3-yl)methyl)piperazin-1-yl)phenyl)urea] | 71% | 71% | 60% | 60%
N#Cc1ccc(N[C@H]2CC[C@H](N(C(=O)NCc3ccccc3)c3ccc(N4CCN(C[C@@H]5CCN(c6ccc7c(c6)C(=O)N(C6CCC(=O)NC6=O)C7=O)C5)CC4)cc3)CC2)nc1 (stereo partly drawn) [4e, 3-Benzyl-1-((1r,4s)-4-((5-cyanopyridin-2-yl)amino)cyclohexyl)-1-(4-(4-(((3S)-1-(2-(2,6-dioxopiperidin-3-yl)-1,3-dioxoisoindolin-5-yl)pyrrolidin-3-yl)methyl)piperazin-1-yl)phenyl)urea] | 70% | 70% | 50% | 50%
N#Cc1ccc(N[C@H]2CC[C@H](N(C(=O)NCc3ccccc3)c3ccc(N4CCN(C[C@H]5CCN(c6ccc7c(c6)C(=O)N(C6CCC(=O)NC6=O)C7=O)C5)CC4)cc3)CC2)nc1 (stereo partly drawn) [4f, 3-Benzyl-1-((1r,4r)-4-((5-cyanopyridin-2-yl)amino)cyclohexyl)-1-(4-(4-(((3R)-1-(2-(2,6-dioxopiperidin-3-yl)-1,3-dioxoisoindolin-5-yl)pyrrolidin-3-yl)methyl)piperazin-1-yl)phenyl)urea] | 64% | 64% | 59% | 59%
N#Cc1ccc(N[C@H]2CC[C@H](N(C(=O)NCc3ccccc3)c3ccc(N4CCN(CC5CCN(c6ccc7c(c6)C(=O)N(C6CCC(=O)NC6=O)C7=O)CC5)CC4)cc3)CC2)nc1 (stereo partly drawn) [4g, 3-Benzyl-1-((1r,4r)-4-((5-cyanopyridin-2-yl)amino)cyclohexyl)-1-(4-(4-((1-(2-(2,6-dioxopiperidin-3-yl)-1,3-dioxoisoindolin-5-yl)piperidin-4-yl)methyl)piperazin-1-yl)phenyl)urea] | 84% | 84% | 74% | 74%
N#Cc1ccc(N[C@H]2CC[C@H](N(C(=O)NCc3ccccc3)c3ccc(N4CCN(CC5CCN(c6cc7c(cc6F)C(=O)N(C6CCC(=O)NC6=O)C7=O)CC5)CC4)cc3)CC2)nc1 (stereo partly drawn) [4g-F, 3-Benzyl-1-((1r,4r)-4-((5-cyanopyridin-2-yl)amino)cyclohexyl)-1-(4-(4-((1-(2-(2,6-dioxopiperidin-3-yl)-6-fluoro-1,3-dioxoisoindolin-5-yl)piperidin-4-yl)methyl)piperazin-1-yl)phenyl)urea] | 57% | 57% | 53% | 53%
N#Cc1ccc(N[C@H]2CC[C@H](N(C(=O)NCc3ccccc3)c3ccc(N4CC(CN5CCN(c6ccc7c(c6)C(=O)N(C6CCC(=O)NC6=O)C7=O)CC5)C4)cc3)CC2)nc1 (stereo partly drawn) [4h, 3-Benzyl-1-((1r,4r)-4-((5-cyanopyridin-2-yl)amino)cyclohexyl)-1-(4-(3-((4-(2-(2,6-dioxopiperidin-3-yl)-1,3-dioxoisoindolin-5-yl)piperazin-1-yl)methyl)azetidin-1-yl)phenyl)urea] | 61% | 61% | 37% | 37%
N#Cc1ccc(N[C@H]2CC[C@H](N(C(=O)NCc3ccccc3)c3ccc(N4CCC(CN5CCN(c6ccc7c(c6)C(=O)N(C6CCC(=O)NC6=O)C7=O)CC5)C4)cc3)CC2)nc1 (stereo partly drawn) [4i, 3-Benzyl-1-((1r,4r)-4-((5-cyanopyridin-2-yl)amino)cyclohexyl)-1-(4-(3-((4-(2-(2,6-dioxopiperidin-3-yl)-1,3-dioxoisoindolin-5-yl)piperazin-1-yl)methyl)pyrrolidin-1-yl)phenyl)urea] | 16% | 16% | 28% | 28%
N#Cc1ccc(N[C@H]2CC[C@H](N(C(=O)NCc3ccccc3)c3ccc(N4CCC(CN5CCN(c6ccc7c(c6)C(=O)N(C6CCC(=O)NC6=O)C7=O)CC5)CC4)cc3)CC2)nc1 (stereo partly drawn) [4j, 3-Benzyl-1-((1r,4r)-4-((5-cyanopyridin-2-yl)amino)cyclohexyl)-1-(4-(4-((4-(2-(2,6-dioxopiperidin-3-yl)-1,3-dioxoisoindolin-5-yl)piperazin-1-yl)methyl)piperidin-1-yl)phenyl)urea] | 71% | 71% | 49% | 49%
N#Cc1ccc(N[C@H]2CC[C@H](N(C(=O)NCc3ccccc3)c3ccc(N4CCN(C5CN(c6ccc7c(c6)C(=O)N(C6CCC(=O)NC6=O)C7=O)C5)CC4)cc3)CC2)nc1 (stereo partly drawn) [4k, 3-Benzyl-1-((1r,4r)-4-((5-cyanopyridin-2-yl)amino)cyclohexyl)-1-(4-(4-(1-(2-(2,6-dioxopiperidin-3-yl)-1,3-dioxoisoindolin-5-yl)azetidin-3-yl)piperazin-1-yl)phenyl)urea] | 76% | 76% | 62% | 62%
